Values joined by “and” are separate entries in the source; they are usually repeats but may differ in a detail not shown here. Equal values may be shown once. Read-outs that look alike come from different tables or passages of the source.
What was measured:
clinical = conditions: human, in vivo, po, 150 mg
[1] = Pharmacokinetic comparison after a single oral dose of 150 mg S-(+)-Ibuprofen, free acid tablet vs D-Lysinat (Tabelle 5); conditions: for Ae conj. I / Ae, free 1 / tlag: single oral dose 150 mg S-(+)-Ibuprofen, Mean ± SD
[2] = human, in vivo, po, 150 mg
[3] = Adverse drug effects, laboratory parameters and medical follow-up in the study; assay type: in vivo, Probandinnen; conditions: up to 3 x daily 200 mg on 3 days
Source text: Unerwünschte Arzneimittelwirkungen traten bei keiner Teilnehmerin an der Studie auf.

primärer Dysmenorrhör = test: Pharmacodynamics: pain intensity on a visual analogue scale (0 - 10), self-rated; assay type: in vivo, Probandinnen
Source text: In einer monozentrienden Studie wurde die Pharmakodynamik bei primärer Dysmenorrhör an 24 Probandinnen untersucht. Die Mittelwerte aller Probandinnen als Auswertung einer Schmerzintensitätsskala sind in Tabelle 4 sowie Fig. 4 graphisch dargestellt. Die Schmerzintensität wurde anhand der visuellen Analogskala (einer von 0 - 10 offenen Skala) von den Probandinnen im Rahmen einer Selbstbeurteilung angegeben.
Wie aus Fig. 4 zu ersehen, betrug die mittlere Schmerzintensität zum Zeitpunkt Null 4,7, die analgetische Wirksamkeit setzte innerhalb von 5 Minuten ein und verminderte sich innerhalb der ersten 45 Minuten auf einen Wert von im Mittel 1,65. Die maximale analgetische Wirkung wurde nach 2 Stunden mit einem Wert von 0,36 erreicht. Anschließend stieg die Schmerzintensität bis auf einen Wert von 0,83 nach 6 Stunden wieder langsam an. Die Fig. 4 zeigt die Schmerzintensitätskurve der Probandinnen.

[4] = Pharmacokinetics of S-(+)-Ibuprofen-D-Lysinat capsules (200 mg S-(+)-Ibuprofen, oral) in 24 subjects

For `N=C(N)NCCC[C@H](N)C(=O)O` [Arginin], which pKa (physchem) is on record?
Its pKa is about 12.5.

For `NCCCC[C@H](N)C(=O)O` [Lysin], which pKa (physchem) is on record?
The pKa was 10.5.

For `CC(C)Cc1ccc([C@H](C)C(=O)O)cc1` [S-(+)-Ibuprofen, freie Säure, S-(+)-Ibuprofen], which Cmax (clinical) is on record?
Its Cmax is 10900 ng/mL.

What about the AUC ([1]; human, in vivo, po, 150 mg) of the same compound?
The AUC was 44500 ng·h/mL.

And the tmax ([1]; human, in vivo, po, 150 mg)?
Its tmax is 2 h.

And the “Ae conj. I” value [1]?
Its value is 8,0 ± 2,9.

What about the “Ae, free 1” value [1] of the same compound?
The value was 0,6 ± 0,2 % of dose.

What about the tlag [1] of the same compound?
The tlag was 0,5 ± 0,1 h.

For `CC(C)Cc1ccc([C@H](C)C(=O)O)cc1.NCCCC[C@@H](N)C(=O)O` [S-(+)-Ibuprofen-D-Lysinat], which Cmax [2] is on record?
Its Cmax is 23,0 ± 5,2 µg/ml.

And the “unerwünschte Arzneimittelwirkungen” value ([3]; single or repeated intake)?
Its value is “zu keinen unerwünschten Arzneimittelwirkungen geführt hat mit Ausnahme der bei einer Probandin aufgetretenen pseudoallergischen Reaktion”.

What about the “laborchemische Parameter und ärztliche Nachuntersuchung” value [3] of the same compound?
Its value is “ohne pathologischen Befund”.

What about the “mittlere Schmerzintensität” value (primärer Dysmenorrhör; Zeitpunkt Null (baseline), scale 0 - 10, mean of 24 subjects) of the same compound?
The value was 4,7.

And the “mittlere Schmerzintensität” value (primärer Dysmenorrhör; nach 2 Stunden (maximal analgesic effect), scale 0 - 10)?
Its value is 0,36.

What about the “mittlere Schmerzintensität” value (primärer Dysmenorrhör; nach 6 Stunden, scale 0 - 10) of the same compound?
Its value is 0,83.

What about the “Einsetzen der analgetischen Wirksamkeit” value (primärer Dysmenorrhör; onset of analgesia) of the same compound?
Its value is at most 5 Minuten.

And the “mittlere Schmerzintensität” value (primärer Dysmenorrhör; within the first 45 Minuten, scale 0 - 10)?
The value was 1,65.

And the “Ae conj. I” value [1]?
The value was 9,3 ± 5,4.

What about the “Ae, free 1” value [1] of the same compound?
Its value is 0,6 ± 0,5 % of dose.

And the tlag [1]?
Its tlag is 0,1 ± 0,02 h.

And the “AUC (Trapez)” value ([4]; group A (n 6), mean x̄, capsule single dose, 720 min)?
Its value is 69,55 mg/lx12h.

What about the tmax ([4]; mean of all subjects, 200 mg capsule oral) of the same compound?
Its tmax is 33 Minuten and 33,59 Minuten.

And the AUC ([4]; mean of all subjects, trapezoidal rule, 200 mg capsule oral, 720 min)?
The AUC was 56,45 mg/1 x 12 h.

What about the “Verzögerungszeit (lag-Time) der Resorption” value ([4]; mean, 200 mg capsule oral) of the same compound?
The value was 2,33 Minuten.

— patent EP0486045A2, “S(+)-Phenyl-alkanoic acids and alpha-amino acid containing complexes” (MEDICE Chem.-Pharm. Fabrik Pütter GmbH & Co. KG, priority 1990, dated 1992)
